Like-named read-outs stand apart in the source and are kept apart here. Starred links: 1 amine or outer side, 2 acyl side, 3 side chain; linkers in the order of their positions; H or OH if unused. Positions of bridges follow the written chain, without caps; N, C: chain ends. Non-standard residues stand in square brackets, D forms with d. Residues, ends and D or L forms follow the SMILES beside them. Groups on a side chain read outwards from the residue. *: point of attachment. X4 = O=C(O)CN1CCN(CC(=O)O)CCN([C@H](CCC(=O)*)C(=O)O)CCN(CC(=O)O)CC1; Ala(piperidin-4-yl) = O=C([C@H](CC1CCN([*:3])CC1)N[*:1])[*:2]; DOTA = O=C(O)CN1CCN(CC(=O)O)CCN(CC(=O)*)CCN(CC(=O)O)CC1; Phe(4-NHCONH2) = NC(=O)Nc1ccc(C[C@H](N)C(=O)O)cc1; Trp(5-F) = N[C@@H](Cc1c[nH]c2ccc(F)cc12)C(=O)O; X1 = C[C@@H](c1ccccc1)[C@H](N[*:1])C(=O)[*:2]; γGlu = O=C(O)[C@H](CCC(=O)[*:2])N[*:1]; 1Nal = N[C@@H](Cc1cccc2ccccc12)C(=O)O; Ala(4-THP) = N[C@@H](CC1CCOCC1)C(=O)O; Val(3-OH) = CC(C)(O)[C@H](N)C(=O)O; PEG4 = NCCOCCOCCOCCOCCC(=O)O; Tle = CC(C)(C)[C@H](N)C(=O)O; hLeu = CC(C)CC[C@H](N)C(=O)O
What was measured:
[1] = test system: Calu-6 cell line; assay: Cell associated (bound) fraction of [177Lu]Lu-labeled peptide in Calu-6 cells; format: cell-based, Human; details: 1 hour, 37° C.
In short: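 Detached B7-H3-expressing human lung cancer cells at 5 million/mL were exposed for 1 hour at 37 °C to 0.8 μCi of the 177Lu-labelled peptide, which was formulated in 1% PBSA after labelling at 80 °C, pH ~5. Supernatant and two cold washes counted as unbound, and resuspended cells gamma-counted as the cell-associated fraction.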

[2] = target: T1, human 4lg B7-H3 (Homo sapiens, UniProt Q5ZPR3); assay: Affinity determination by surface plasmon resonance (SPR) to 4Ig B7-H3; details: 4Ig B7-H3, 37° C. flow cell temperature
T1 sequence (Q5ZPR3 29-534): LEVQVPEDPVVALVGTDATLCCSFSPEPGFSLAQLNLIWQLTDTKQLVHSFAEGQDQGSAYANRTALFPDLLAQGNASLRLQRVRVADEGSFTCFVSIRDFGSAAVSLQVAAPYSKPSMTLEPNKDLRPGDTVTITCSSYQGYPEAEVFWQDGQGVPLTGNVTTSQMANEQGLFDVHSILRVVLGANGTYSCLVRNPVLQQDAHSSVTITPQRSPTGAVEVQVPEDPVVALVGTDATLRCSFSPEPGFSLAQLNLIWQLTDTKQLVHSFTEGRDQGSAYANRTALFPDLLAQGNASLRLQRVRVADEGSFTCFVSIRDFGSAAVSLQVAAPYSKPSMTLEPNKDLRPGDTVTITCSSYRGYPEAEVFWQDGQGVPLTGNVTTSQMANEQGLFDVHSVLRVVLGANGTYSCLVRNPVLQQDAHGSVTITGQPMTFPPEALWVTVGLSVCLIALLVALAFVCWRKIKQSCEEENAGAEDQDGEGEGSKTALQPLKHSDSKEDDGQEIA

[3] = test system: Calu-6 cell line; assay: Net internalization of [177Lu]Lu-labeled peptide in Calu-6 cells; format: cell-based, Human; details: 1 hour, 37° C., glycine pH 2.5 acid wash
In short: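 Calu-6 cells, human non-engineered lung cancer expressing B7-H3, resuspended in 1% PBSA at 5 million cells/mL and incubated with the 177Lu-labeled conjugate (labeled at 80 °C, pH ~5, RP-HPLC checked). Gamma counting of the bound fraction, then of the pellet after two glycine pH 2.5 acid strips and NaOH lysis, gives internalized activity.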

Row | Compound | % cell associated fraction [1] | Kd ([2]; read-out: SPR KD—37° C.) [nM] | % net internalization [3] | Kd ([2]; SPR KD—37° C.) [nM]
1 | CC(=O)N[C@@H](CCC(C)C)C(=O)N[C@@H](Cc1ccc(O)cc1)C(=O)N[C@H]1CSSC[C@@H](C(=O)N[C@@H](Cc2c[nH]c3ccc(F)cc23)C(=O)N[C@@H](Cc2ccccc2)C(=O)N[C@H](C(=O)N[C@H](CO)C(N)=O)C(C)(C)O)NC(=O)[C@H](Cc2ccc(O)cc2)NC(=O)[C@H](C(C)C)NC(=O)[C@H](CC(=O)O)NC(=O)[C@H](CC2CCOCC2)NC(=O)[C@H](CC2CCN(C(=O)CCOCCOCCOCCOCCNC(=O)CN3CCN(CC(=O)O)CCN(CC(=O)O)CCN(CC(=O)O)CC3)CC2)NC(=O)CNC(=O)[C@H](C(C)(C)C)NC1=O [compound 407, Ac-hLeu-Y-C-Tbg-G-Pip(PEG4-DOTA)Ala-ThpA-D-V-Y-C-5FW-F-hydroxyVal-dSer-CONH2] (Ac-[hLeu]YC[Tle]G[Ala(piperidin-4-yl)]([PEG4-DOTA])[Ala(4-THP)]DVYC[Trp(5-F)]F[Val(3-OH)][dS]-NH2; disulfide 3-11) | C (%>50) | < 1 | A (%≤25) | 
2 | CC(=O)N[C@@H](CCC(C)C)C(=O)N[C@@H](Cc1ccc(O)cc1)C(=O)N[C@H]1CSSC[C@@H](C(=O)N[C@@H](Cc2c[nH]c3ccc(F)cc23)C(=O)N[C@@H](Cc2ccccc2)C(=O)N[C@H](C(=O)N[C@H](CCCCNC(=O)CN2CCN(CC(=O)O)CCN(CC(=O)O)CCN(CC(=O)O)CC2)C(=O)O)C(C)(C)O)NC(=O)[C@H](Cc2ccc(NC(N)=O)cc2)NC(=O)[C@H](C(C)C)NC(=O)[C@H](CC(=O)O)NC(=O)[C@H](CC2CCOCC2)NC(=O)[C@H](CC2CCNCC2)NC(=O)CNC(=O)[C@H](C(C)(C)C)NC1=O [compound 427, Ac-hLeu-Y-C-Tbg-G-PipAla-ThpA-D-V-Aph(Cbm)-C-5FW-F-hydroxyVal-dLys(DOTA)-COOH] (Ac-[hLeu]YC[Tle]G[Ala(piperidin-4-yl)][Ala(4-THP)]DV[Phe(4-NHCONH2)]C[Trp(5-F)]F[Val(3-OH)][dK](DOTA)-OH; disulfide 3-11) | C (%>50) | < 1 | B (25<%≤50) | 
3 | CC(=O)N[C@@H](CCC(C)C)C(=O)N[C@@H](Cc1ccc(O)cc1)C(=O)N[C@H]1CSSC[C@@H](C(=O)N[C@@H](Cc2c[nH]c3ccc(F)cc23)C(=O)N[C@@H](Cc2ccccc2)C(=O)N[C@H](C(=O)N[C@H](CCCCNC(=O)[C@H](CCC(=O)O)NC(=O)CN2CCN(CC(=O)O)CCN(CC(=O)O)CCN(CC(=O)O)CC2)C(=O)O)C(C)(C)O)NC(=O)[C@H](Cc2ccc(O)cc2)NC(=O)[C@H](C(C)C)NC(=O)[C@H](CC(=O)O)NC(=O)[C@H](CC2CCOCC2)NC(=O)[C@H](CC2CCNCC2)NC(=O)CNC(=O)[C@H](C(C)(C)C)NC1=O [compound 428, Ac-hLeu-Y-C-Tbg-G-PipAla-ThpA-D-V-Y-C-5FW-F-hydroxyVal-dLys(Glu-DOTA)-COOH] (Ac-[hLeu]YC[Tle]G[Ala(piperidin-4-yl)][Ala(4-THP)]DVYC[Trp(5-F)]F[Val(3-OH)][dK]([Glu-DOTA])-OH; disulfide 3-11) | B (25<%≤50) | < 1 | A (%≤25) | 
4 | CC(=O)N[C@@H](CCC(C)C)C(=O)N[C@@H](Cc1ccc(O)cc1)C(=O)N[C@H]1CSSC[C@@H](C(=O)N[C@@H](Cc2c[nH]c3ccc(F)cc23)C(=O)N[C@@H](Cc2ccccc2)C(=O)N[C@H](C(=O)N[C@H](CCCCNC(=O)[C@@H](CCC(=O)O)NC(=O)CN2CCN(CC(=O)O)CCN(CC(=O)O)CCN(CC(=O)O)CC2)C(=O)O)C(C)(C)O)NC(=O)[C@H](Cc2ccc(O)cc2)NC(=O)[C@H](C(C)C)NC(=O)[C@H](CC(=O)O)NC(=O)[C@H](CC2CCOCC2)NC(=O)[C@H](CC2CCNCC2)NC(=O)CNC(=O)[C@H](C(C)(C)C)NC1=O [compound 429, Ac-hLeu-Y-C-Tbg-G-PipAla-ThpA-D-V-Y-C-5FW-F-hydroxyVal-dLys(dGlu-DOTA)-COOH] (Ac-[hLeu]YC[Tle]G[Ala(piperidin-4-yl)][Ala(4-THP)]DVYC[Trp(5-F)]F[Val(3-OH)][dK]([dE-DOTA])-OH; disulfide 3-11) | B (25<%≤50) | < 1 | A (%≤25) | 
5 | CC(=O)N[C@@H](CCC(C)C)C(=O)N[C@@H](Cc1ccc(O)cc1)C(=O)N[C@H]1CSSC[C@@H](C(=O)N[C@@H](Cc2c[nH]c3ccc(F)cc23)C(=O)N[C@H](C(=O)N[C@H](C(=O)N[C@H](CCCCNC(=O)CN2CCN(CC(=O)O)CCN(CC(=O)O)CCN(CC(=O)O)CC2)C(=O)O)C(C)(C)O)[C@@H](C)c2ccccc2)NC(=O)[C@H](Cc2ccc(O)cc2)NC(=O)[C@H](C(C)C)NC(=O)[C@H](CC(=O)O)NC(=O)[C@H](CC2CCOCC2)NC(=O)[C@H](CC2CCNCC2)NC(=O)CNC(=O)[C@H](C(C)(C)C)NC1=O [compound 433, Ac-hLeu-Y-C-Tbg-G-PipAla-ThpA-D-V-Y-C-5FW-[(2S, 3S)beta-Me-Phe]-hydroxyVal-dLys(DOTA)-COOH] (Ac-[hLeu]YC[Tle]G[Ala(piperidin-4-yl)][Ala(4-THP)]DVYC[Trp(5-F)][X1][Val(3-OH)][dK](DOTA)-OH; disulfide 3-11) | C (%>50) |  | B (25<%≤50) | < 1
6 | CC(=O)N[C@@H](CCC(C)C)C(=O)N[C@@H](Cc1ccc(O)cc1)C(=O)N[C@H]1CSSC[C@@H](C(=O)N[C@@H](Cc2cccc3ccccc23)C(=O)N[C@@H](Cc2ccccc2)C(=O)N[C@H](C(=O)N[C@H](CCCCNC(=O)CN2CCN(CC(=O)O)CCN(CC(=O)O)CCN(CC(=O)O)CC2)C(=O)O)C(C)(C)O)NC(=O)[C@H](Cc2ccc(O)cc2)NC(=O)[C@H](C(C)C)NC(=O)[C@H](CC(=O)O)NC(=O)[C@H](CC2CCOCC2)NC(=O)[C@H](CC2CCNCC2)NC(=O)CNC(=O)[C@H](C(C)(C)C)NC1=O [compound 436, Ac-hLeu-Y-C-Tbg-G-PipAla-ThpA-D-V-Y-C-1Nal-F-hydroxyVal-dLys(DOTA)-COOH] (Ac-[hLeu]YC[Tle]G[Ala(piperidin-4-yl)][Ala(4-THP)]DVYC[1Nal]F[Val(3-OH)][dK](DOTA)-OH; disulfide 3-11) | B (25<%≤50) |  | A (%≤25) | < 1
7 | CC(=O)N[C@@H](CCC(C)C)C(=O)N[C@@H](Cc1ccc(O)cc1)C(=O)N[C@H]1CSSC[C@@H](C(=O)N[C@@H](Cc2c[nH]c3ccc(F)cc23)C(=O)N[C@@H](Cc2ccccc2)C(=O)N[C@H](C(=O)N[C@H](CCCCNC(=O)CC[C@H](C(=O)O)N2CCN(CC(=O)O)CCN(CC(=O)O)CCN(CC(=O)O)CC2)C(=O)O)C(C)(C)O)NC(=O)[C@H](Cc2ccc(O)cc2)NC(=O)[C@H](C(C)C)NC(=O)[C@H](CC(=O)O)NC(=O)[C@H](CC2CCOCC2)NC(=O)[C@H](CC2CCNCC2)NC(=O)CNC(=O)[C@H](C(C)(C)C)NC1=O [compound 438, Ac-hLeu-Y-C-Tbg-G-PipAla-ThpA-D-V-Y-C-5FW-F-hydroxyVal-dLys(R-DOTAGA)-COOH] (Ac-[hLeu]YC[Tle]G[Ala(piperidin-4-yl)][Ala(4-THP)]DVYC[Trp(5-F)]F[Val(3-OH)][dK](X4)-OH; disulfide 3-11) | B (25<%≤50) | < 1 | A (%≤25) | 
8 | CC(=O)N[C@@H](CCC(C)C)C(=O)N[C@@H](Cc1ccc(O)cc1)C(=O)N[C@H]1CSSC[C@@H](C(=O)N[C@@H](Cc2c[nH]c3ccc(F)cc23)C(=O)N[C@@H](Cc2ccccc2)C(=O)N[C@H](C(=O)N[C@H](CCCCNC(=O)CC[C@H](NC(=O)CN2CCN(CC(=O)O)CCN(CC(=O)O)CCN(CC(=O)O)CC2)C(=O)O)C(=O)O)C(C)(C)O)NC(=O)[C@H](Cc2ccc(O)cc2)NC(=O)[C@H](C(C)C)NC(=O)[C@H](CC(=O)O)NC(=O)[C@H](CC2CCOCC2)NC(=O)[C@H](CC2CCNCC2)NC(=O)CNC(=O)[C@H](C(C)(C)C)NC1=O [compound 440, Ac-hLeu-Y-C-Tbg-G-PipAla-ThpA-D-V-Y-C-5FW-F-hydroxyVal-dLys(gGlu-DOTA)-COOH] (Ac-[hLeu]YC[Tle]G[Ala(piperidin-4-yl)][Ala(4-THP)]DVYC[Trp(5-F)]F[Val(3-OH)][dK]([γGlu-DOTA])-OH; disulfide 3-11) | B (25<%≤50) | < 1 | A (%≤25) | 
